The source made the active and inactive calls. The rule behind the calls is not given here.
What was measured:
Homo sapiens [1] = species on record: Homo sapiens; assay: Inhibition of recombinant full-length human PI3K p110delta/p85alpha N253S mutant assessed as residual activity at 10 uM using phosphatidylinositol-4, 5-bisphosphate as substrate measured after 40 mins by fluorescence assay
[2] = molecular target: SRSF protein kinase 1 (Homo sapiens) (UniProt Q96SB4); assay: Inhibition of human SRPK1 (2 to end residues) using RSRSRSRSRSRSRSR as substrate measured after 40 mins in presence of [gamma33P]ATP by scintillation counting method; design: scale not given: the % may be the effect or the level left
[3] = Toxicity in nude BALB/c mouse assessed as change in AST level at 40 to 80 mg/kg, po once daily for 4 weeks measured post-last dose; type: organism-based; conditions: in vivo, 672 h
[4] = Toxicity in nude BALB/c mouse assessed as change in globulin level at 40 to 80 mg/kg, po once daily for 4 weeks measured post-last dose; type: organism-based; conditions: in vivo, 672 h
[5] = molecular target: Vascular endothelial growth factor receptor 2 (Homo sapiens) (UniProt P35968); assay: Inhibition of recombinant human KDR (790 to end residues) assessed as residual activity at 10 uM using myelin basic protein substrate measured after 40 mins in presence of [gamma33P]ATP by scintillation counting method
[6] = molecular target: Activin receptor type-2A (Homo sapiens) (UniProt P27037); assay: Inhibition of recombinant human ACTR2 (162 to end residues) assessed as residual activity at 10 uM using casein as substrate measured after 120 mins in presence of [gamma33P]ATP by scintillation counting method
[7] = molecular target: Dual specificity tyrosine-phosphorylation-regulated kinase 1A (Homo sapiens) (UniProt Q13627); assay: Inhibition of recombinant full-length human DYRK1A assessed as residual activity at 10 uM using RRRFRPASPLRGPPK as substrate measured after 40 mins in presence of [gamma33P]ATP by scintillation counting method
[8] = molecular target: Dual specificity mitogen-activated protein kinase kinase 1 (Homo sapiens) (UniProt Q02750); assay: Inhibition of recombinant full-length human MEK1 assessed as residual activity at 10 uM using unactive MAPK2 as substrate measured after 40 mins in presence of [gamma33P]ATP by scintillation counting method
HCT-116 = assay: Induction of apoptosis in human HCT116 cells assessed as increase in cleaved caspase3 expression up to 200 nM measured after 48 hrs by Western blot analysis; type: functional, cell-based
[9] = molecular target: Non-receptor tyrosine-protein kinase TYK2 (Homo sapiens) (UniProt P29597); assay: Inhibition of human TYK2 (875 to end residues) using GGMEDIYFEFMGGKKK as substrate measured after 40 mins in presence of [gamma33P]ATP by scintillation counting method; design: scale not given: the % may be the effect or the level left
SW-620 = assay: Induction of apoptosis in human SW620 cells assessed as increase in cleaved caspase3 expression up to 200 nM measured after 48 hrs by Western blot analysis; type: functional, cell-based
Homo sapiens [10] = species on record: Homo sapiens; assay: Inhibition of recombinant human EphB2 A848S/ K918E mutant (560 to end residues) assessed as residual activity at 10 uM using KTFCGTPEYLAPEVRREPRILSEEEQEMFRDFDYIADWC as substrate measured after 40 mins in presence of [gamma33P]ATP by scintillation counting method
[11] = molecular target: Calcium/calmodulin-dependent protein kinase type II subunit delta (Homo sapiens) (UniProt Q13557); assay: Inhibition of recombinant full-length human CaMK2delta assessed as residual activity at 10 uM using calmodulin as substrate measured after 40 mins in presence of [gamma33P]ATP by scintillation counting method
[12] = molecular target: Casein kinase I (Homo sapiens) (UniProt Q9HCP0+P78368+P48730+P49674+P48729); assay: Inhibition of CK1 (unknown origin) assessed as residual activity at 10 uM; type: protein assay
[13] = molecular target: Casein kinase II subunit alpha (Homo sapiens) (UniProt P68400); assay: Inhibition of recombinant full length human CK2alpha1 assessed as residual activity at 10 uM using RRRDDDSDDD as substrate measured after 40 mins in presence of [gamma33P]ATP by scintillation counting method
Homo sapiens [14] = species on record: Homo sapiens; assay: Inhibition of recombinant human MARK1 T20S mutant (2 to end residues) assessed as residual activity at 10 uM using KKKVSRSGLYRSPSMPENLNRPR as substrate measured after 40 mins in presence of [gamma33P]ATP by scintillation counting method
[15] = molecular target: Casein kinase I isoform gamma-1 (Homo sapiens) (UniProt Q9HCP0); assay: Inhibition of recombinant human CK1gamma1 (25 to 355 residues) assessed as residual activity at 10 uM using KRRRALS(p)VASLPGL as substrate measured after 40 mins in presence of [gamma33P]ATP by scintillation counting method
[16] = molecular target: Tyrosine-protein kinase ABL1 (Homo sapiens) (UniProt P00519); assay: Inhibition of recombinant human ABL (27 to end residues) assessed as residual activity at 10 uM using EAIYAAPFAKKK as substrate measured after 40 mins in presence of [gamma33P]ATP by scintillation counting method
[17] = molecular target: Tyrosine-protein kinase Fes/Fps (Homo sapiens) (UniProt P07332); assay: Inhibition of recombinant human FES (2 to end residues) assessed as residual activity at 10 uM using poly(Glu, Tyr) 4:1 as substrate measured after 40 mins in presence of [gamma33P]ATP by scintillation counting method
[18] = molecular target: MAP kinase-interacting serine/threonine-protein kinase 2 (Homo sapiens) (UniProt Q9HBH9); assay: Inhibition of recombinant full-length human Mnk2 assessed as residual activity at 10 uM using myelin basic protein as substrate measured after 40 mins in presence of [gamma33P]ATP by scintillation counting method
[19] = tested on: PI3-kinase p110-alpha/p85-alpha (Homo sapiens), P27986+P42336 [E542K]; assay: Inhibition of recombinant full-length human PI3K p110alpha/p85alpha E542K mutant assessed as residual activity at 10 uM using phosphatidylinositol-4, 5-bisphosphate as substrate measured after 40 mins by fluorescence assay; type: protein-complex assay
[20] = molecular target: Testis-specific serine/threonine-protein kinase 4 (Homo sapiens) (UniProt Q6SA08); assay: Inhibition of recombinant full-length human TSSK4 assessed as residual activity at 10 uM using KKLNRTLSFAEPG as substrate measured after 40 mins in presence of [gamma33P]ATP by scintillation counting method
[21] = molecular target: Serine/threonine-protein kinase NLK (Homo sapiens) (UniProt Q9UBE8); assay: Inhibition of recombinant human NLK (121 to end residues) assessed as residual activity at 10 uM using myelin basic protein as substrate measured after 40 mins in presence of [gamma33P]ATP by scintillation counting method
[22] = molecular target: Ephrin type-A receptor 3 (Homo sapiens) (UniProt P29320); assay: Inhibition of recombinant human EphA3 (578 to end residues) assessed as residual activity at 10 uM using poly(Glu, Tyr) 4:1 as substrate measured after 40 mins in presence of [gamma33P]ATP by scintillation counting method
[23] = molecular target: STE20-like serine/threonine-protein kinase (Homo sapiens) (UniProt Q9H2G2); assay: Inhibition of human SLK (1 to 373 residues) using RLGRDKYKTLRQIRQ as substrate measured after 40 mins in presence of [gamma33P]ATP by scintillation counting method; design: scale not given: the % may be the effect or the level left

Sequence of Activin receptor type-2A (Homo sapiens) (P27037 whole entry): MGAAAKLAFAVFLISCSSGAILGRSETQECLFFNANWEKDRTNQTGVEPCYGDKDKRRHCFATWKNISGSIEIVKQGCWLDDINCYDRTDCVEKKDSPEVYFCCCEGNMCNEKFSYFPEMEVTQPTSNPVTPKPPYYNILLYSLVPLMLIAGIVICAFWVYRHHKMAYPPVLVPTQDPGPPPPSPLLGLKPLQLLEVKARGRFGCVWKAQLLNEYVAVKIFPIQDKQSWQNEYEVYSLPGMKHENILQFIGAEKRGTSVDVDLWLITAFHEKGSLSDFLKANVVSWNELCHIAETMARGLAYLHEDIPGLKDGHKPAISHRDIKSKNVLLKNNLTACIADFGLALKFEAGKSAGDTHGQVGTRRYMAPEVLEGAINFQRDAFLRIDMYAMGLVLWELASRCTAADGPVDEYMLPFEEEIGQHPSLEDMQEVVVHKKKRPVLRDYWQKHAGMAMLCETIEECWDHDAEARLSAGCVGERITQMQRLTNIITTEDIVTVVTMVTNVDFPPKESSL
Sequence of Tyrosine-protein kinase Fes/Fps (Homo sapiens) (P07332 whole entry): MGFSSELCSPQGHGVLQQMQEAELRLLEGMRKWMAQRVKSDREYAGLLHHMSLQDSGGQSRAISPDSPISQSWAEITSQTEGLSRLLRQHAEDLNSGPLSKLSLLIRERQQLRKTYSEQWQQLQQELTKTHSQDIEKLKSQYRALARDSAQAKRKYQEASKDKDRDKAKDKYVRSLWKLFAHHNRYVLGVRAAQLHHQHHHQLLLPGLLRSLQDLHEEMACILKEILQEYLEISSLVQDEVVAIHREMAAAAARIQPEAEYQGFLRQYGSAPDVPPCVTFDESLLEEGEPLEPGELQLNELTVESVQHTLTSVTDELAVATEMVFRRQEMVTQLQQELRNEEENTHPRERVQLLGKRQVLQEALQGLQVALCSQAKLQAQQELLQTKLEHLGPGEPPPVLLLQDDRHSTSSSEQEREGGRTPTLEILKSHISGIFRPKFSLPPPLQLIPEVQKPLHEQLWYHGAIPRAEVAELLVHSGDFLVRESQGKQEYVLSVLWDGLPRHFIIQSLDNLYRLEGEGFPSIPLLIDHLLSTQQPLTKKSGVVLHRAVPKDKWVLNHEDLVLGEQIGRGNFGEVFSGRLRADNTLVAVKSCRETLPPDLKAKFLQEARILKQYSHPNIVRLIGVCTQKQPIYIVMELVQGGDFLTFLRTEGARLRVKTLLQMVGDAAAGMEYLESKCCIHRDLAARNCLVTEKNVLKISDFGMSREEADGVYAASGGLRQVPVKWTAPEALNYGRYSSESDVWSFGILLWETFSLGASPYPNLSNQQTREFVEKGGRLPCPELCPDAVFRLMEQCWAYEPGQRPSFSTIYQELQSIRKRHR
Sequence of Calcium/calmodulin-dependent protein kinase type II subunit delta (Homo sapiens) (Q13557 whole entry): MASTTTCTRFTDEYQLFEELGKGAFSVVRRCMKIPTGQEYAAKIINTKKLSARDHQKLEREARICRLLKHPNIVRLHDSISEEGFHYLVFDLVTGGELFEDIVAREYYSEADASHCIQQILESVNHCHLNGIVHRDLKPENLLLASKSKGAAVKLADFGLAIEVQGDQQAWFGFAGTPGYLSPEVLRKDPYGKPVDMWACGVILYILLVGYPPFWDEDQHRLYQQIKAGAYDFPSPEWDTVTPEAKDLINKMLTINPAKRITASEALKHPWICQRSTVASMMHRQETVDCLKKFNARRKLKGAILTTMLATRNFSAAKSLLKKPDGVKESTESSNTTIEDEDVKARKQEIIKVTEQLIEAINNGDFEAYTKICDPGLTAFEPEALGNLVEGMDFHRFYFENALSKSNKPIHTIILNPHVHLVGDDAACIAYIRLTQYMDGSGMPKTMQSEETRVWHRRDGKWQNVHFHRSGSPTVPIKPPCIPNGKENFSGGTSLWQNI
Sequence of MAP kinase-interacting serine/threonine-protein kinase 2 (Homo sapiens) (Q9HBH9 whole entry, looked up): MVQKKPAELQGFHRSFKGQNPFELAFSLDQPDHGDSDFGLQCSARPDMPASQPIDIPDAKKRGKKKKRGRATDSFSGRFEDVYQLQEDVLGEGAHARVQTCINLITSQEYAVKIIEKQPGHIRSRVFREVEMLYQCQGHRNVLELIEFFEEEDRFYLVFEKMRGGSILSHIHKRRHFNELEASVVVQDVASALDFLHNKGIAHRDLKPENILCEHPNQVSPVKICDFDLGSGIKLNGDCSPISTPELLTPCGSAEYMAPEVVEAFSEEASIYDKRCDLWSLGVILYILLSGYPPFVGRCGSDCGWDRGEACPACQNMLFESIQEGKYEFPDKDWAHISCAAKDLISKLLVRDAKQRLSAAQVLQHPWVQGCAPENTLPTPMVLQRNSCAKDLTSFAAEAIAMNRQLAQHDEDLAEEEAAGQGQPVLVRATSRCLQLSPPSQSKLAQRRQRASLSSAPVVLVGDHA
Sequence of Casein kinase II subunit alpha (Homo sapiens) (P68400 whole entry, looked up): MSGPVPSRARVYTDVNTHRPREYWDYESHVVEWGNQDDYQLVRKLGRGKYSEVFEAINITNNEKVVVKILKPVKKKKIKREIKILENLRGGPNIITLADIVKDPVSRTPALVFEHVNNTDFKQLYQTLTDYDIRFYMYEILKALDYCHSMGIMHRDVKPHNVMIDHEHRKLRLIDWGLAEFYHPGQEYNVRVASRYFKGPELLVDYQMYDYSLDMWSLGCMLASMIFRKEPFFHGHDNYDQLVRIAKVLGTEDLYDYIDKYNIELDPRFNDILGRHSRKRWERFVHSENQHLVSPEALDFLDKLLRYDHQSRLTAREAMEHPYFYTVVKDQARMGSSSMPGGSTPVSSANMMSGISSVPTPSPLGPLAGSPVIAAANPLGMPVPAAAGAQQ
Sequence of Ephrin type-A receptor 3 (Homo sapiens) (P29320 whole entry, the tested form may be a part): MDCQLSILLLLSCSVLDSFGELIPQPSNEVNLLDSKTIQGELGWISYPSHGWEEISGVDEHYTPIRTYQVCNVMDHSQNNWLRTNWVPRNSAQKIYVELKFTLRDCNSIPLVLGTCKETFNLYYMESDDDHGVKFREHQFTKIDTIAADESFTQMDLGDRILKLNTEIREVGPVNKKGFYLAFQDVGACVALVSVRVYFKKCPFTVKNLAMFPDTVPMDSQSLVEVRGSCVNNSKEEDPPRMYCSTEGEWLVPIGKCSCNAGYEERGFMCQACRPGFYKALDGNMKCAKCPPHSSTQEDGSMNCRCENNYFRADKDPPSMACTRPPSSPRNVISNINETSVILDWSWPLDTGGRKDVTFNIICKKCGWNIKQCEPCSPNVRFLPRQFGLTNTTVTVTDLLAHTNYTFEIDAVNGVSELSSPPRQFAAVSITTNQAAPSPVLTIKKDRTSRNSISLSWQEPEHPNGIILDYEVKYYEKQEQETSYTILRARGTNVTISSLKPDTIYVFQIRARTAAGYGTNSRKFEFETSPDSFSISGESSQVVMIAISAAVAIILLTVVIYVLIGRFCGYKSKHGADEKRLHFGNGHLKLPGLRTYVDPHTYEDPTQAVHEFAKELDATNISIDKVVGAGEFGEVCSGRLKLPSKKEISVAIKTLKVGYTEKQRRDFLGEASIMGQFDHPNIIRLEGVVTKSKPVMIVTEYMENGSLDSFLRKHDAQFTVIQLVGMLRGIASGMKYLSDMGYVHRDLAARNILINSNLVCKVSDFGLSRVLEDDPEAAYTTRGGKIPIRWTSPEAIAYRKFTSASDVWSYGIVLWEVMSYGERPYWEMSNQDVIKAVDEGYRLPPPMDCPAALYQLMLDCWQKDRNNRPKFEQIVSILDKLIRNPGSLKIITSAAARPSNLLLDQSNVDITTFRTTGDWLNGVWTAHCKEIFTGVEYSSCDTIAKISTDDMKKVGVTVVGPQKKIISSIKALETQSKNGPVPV
Sequence of Testis-specific serine/threonine-protein kinase 4 (Homo sapiens) (Q6SA08 whole entry): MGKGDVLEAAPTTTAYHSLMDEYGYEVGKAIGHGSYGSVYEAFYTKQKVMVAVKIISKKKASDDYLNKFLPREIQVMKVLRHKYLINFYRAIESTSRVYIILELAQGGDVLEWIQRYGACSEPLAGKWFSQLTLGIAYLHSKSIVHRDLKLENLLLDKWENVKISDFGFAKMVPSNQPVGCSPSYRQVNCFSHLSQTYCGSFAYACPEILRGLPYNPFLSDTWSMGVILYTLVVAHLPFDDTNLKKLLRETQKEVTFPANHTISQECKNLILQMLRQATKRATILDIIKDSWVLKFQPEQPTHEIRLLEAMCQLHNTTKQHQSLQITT
Sequence of Dual specificity mitogen-activated protein kinase kinase 1 (Homo sapiens) (Q02750 whole entry): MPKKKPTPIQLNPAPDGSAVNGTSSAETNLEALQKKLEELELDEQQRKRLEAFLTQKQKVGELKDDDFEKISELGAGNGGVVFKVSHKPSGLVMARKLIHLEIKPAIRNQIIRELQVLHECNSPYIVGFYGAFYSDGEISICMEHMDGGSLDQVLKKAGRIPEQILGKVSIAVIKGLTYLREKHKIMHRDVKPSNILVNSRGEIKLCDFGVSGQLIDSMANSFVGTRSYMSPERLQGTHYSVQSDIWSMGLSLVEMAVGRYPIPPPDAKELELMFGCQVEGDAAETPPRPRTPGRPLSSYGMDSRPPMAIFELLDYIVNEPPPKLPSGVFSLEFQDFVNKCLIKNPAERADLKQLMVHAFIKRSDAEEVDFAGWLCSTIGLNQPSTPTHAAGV
Sequence of Casein kinase I isoform gamma-1 (Homo sapiens) (Q9HCP0 whole entry, looked up, the tested form may be a part, canonical isoform): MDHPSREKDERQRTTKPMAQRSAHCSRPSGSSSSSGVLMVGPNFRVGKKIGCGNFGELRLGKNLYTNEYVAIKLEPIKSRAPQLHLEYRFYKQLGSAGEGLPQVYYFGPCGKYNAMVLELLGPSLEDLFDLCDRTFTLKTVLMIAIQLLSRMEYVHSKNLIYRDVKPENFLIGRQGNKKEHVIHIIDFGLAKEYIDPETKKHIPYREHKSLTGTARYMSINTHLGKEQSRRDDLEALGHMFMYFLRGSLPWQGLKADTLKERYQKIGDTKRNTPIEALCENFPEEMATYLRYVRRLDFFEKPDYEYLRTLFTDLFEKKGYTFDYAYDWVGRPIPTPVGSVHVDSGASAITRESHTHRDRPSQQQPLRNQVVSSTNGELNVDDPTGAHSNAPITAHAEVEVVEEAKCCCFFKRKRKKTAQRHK

SMILES: Cc1cc(C)c(CNc2nc(Cl)nc3c2ncn3C2CCCC2)c(=O)[nH]1
- Activity (Homo sapiens [1]): 99.5%
- Activity [2]: 101%
- Activity [3]: Non-Toxic
- Activity [4]: Non-Toxic
- Activity [5]: 107%
- Activity [6]: 104%
- Activity [7]: 100%
- Activity [8]: 100%
- Activity (HCT-116): Active
- Activity [9]: 95.5%
- Activity (SW-620): Active
- Activity (Homo sapiens [10]): 93.5%
- Activity [11]: 120%
- Activity [12]: 106%
- Activity [13]: 88%
- Activity (Homo sapiens [14]): 112%
- Activity [15]: 94.5%
- Activity [16]: 108%
- Activity [17]: 100%
- Activity [18]: 88%
- Activity [19]: 97.5%
- Activity [20]: 138%
- Activity [21]: 93.5%
- Activity [22]: 102%
- Activity [23]: 95.5%

Source: ChEMBL document CHEMBL4311992, “Discovery of 3-(((9H-purin-6-yl)amino)methyl)-4,6-dimethylpyridin-2(1H)-one derivatives as novel tubulin polymerization inhibitors for treatment of cancer” (Eur J Med Chem, 2019)
